The values below come from patent US9656953B2, “Inhibition of cell proliferation” (University of South Florida, priority 2005, dated 2017).

One assay has as its target T1, Rb:Raf-1 binding (Homo sapiens, UniProt P04049+P06400).
T1 construct: a glutathione S-transferase (GST) Raf-1 (1-149aa) overnight at 4° C; made in house
Briefly: GST-Rb/GST-Raf-1 ELISA. Particulars: for inhibition at 20 µM / % Inhibition at 20 μM: inhibition of Rb:Raf-1 binding, compound at 20 μM; for inhibition at 20 µM: read-out: % Inhibition at 20 μM; for Rb:Raf-1 binding inhibitory activity in words: ELISA; for fold less active compared to 3a: IC50 ratio to 3a. On the procedure: In vitro library screening assays. Enzyme Linked ImmunoSorbent Assay (ELISA) 96-well plates were coated with 1 μg/mL of a glutathione S-transferase (GST) Raf-1 (1-149aa) overnight at 4° C. Subsequently the plates were blocked and GST Rb at 20 μg/mL was rotated at room temperature (RT) for 30 minutes in the presence or absence of the compounds at 20 micromolar (μM). GST-Rb +/− compounds were then added to the plate and incubated for 90 minutes (min) at 37° C. The amount of Rb bound to Raf-1 was detected by Rb polyclonal antibody (Santa Cruz Biotechnology, Santa Cruz, Calif.) 1:1000 incubated for 60 min at 37° C. Donkey-anti-rabbit-IgG-HRP (1:10,000) was added to the plate and incubated at 37° C. for 60 minutes. The color was developed with orthophenylenediamine (Sigma, St. Louis, Mo.) and the reaction was terminated with 3 molar (M) H2SO4. Absorbance was read at 490 nanometers (nm). To determine disruption of Rb to E2F1, Phb, or HDAC1 the above protocol was used with the exception of coating GST Rb on the ELISA plate and adding the drugs in the presence or absence of GST E2F1, Phb, or HDAC1. […] Prohibitin monoclonal antibody was used at 1:1000 to detect the amount of Rb bound to Prohibitin. For disruption of MEK-Raf-1 binding ELISAs, Raf-1 1 microgram/milliliter (μg/mL) was coated on the plate and GST-MEK (20 μg/mL) was incubated +/− the compounds for 30 minutes at room temperature. Mek1 polyclonal antibody was used at 1:1000 to detect the binding of Raf-1 to Mek1. The IC50 concentrations for the Rb:Raf-1 inhibitors were determined by plotting with Origin 7.5 software (Origin, Northampton, Mass.).
A screen was developed to identify small molecule inhibitors of the Rb:Raf-1 interaction. A diversity set, comprising 1981 compounds (National Cancer Institute, Bethesda, Md.) was examined using a glutathione S-transferase-retinoblastoma/glutathione S-transferase-Raf-1 kinase Enzyme-Linked ImmunoSorbent Assay screen (GST-Rb/GST-Raf-1 ELISA).

In assay [1] the test system is Rb phosphorylation (serines 807 and 811). Briefly: Western blot of Rb phosphorylation, A549 cells. Type of assay: cell-based, human. Particulars: cells treated 18 hours, western blotting. An excerpt:
Lysate preparation, pmmunoprecipitation, and pestern plotting.

Setting [2] is: concentration that inhibits the Rb:Raf-1 binding by 50%, triplicate, read-out: IC50 (nM), inhibition of the Rb:Raf-1 binding.
Setting [3] is: values in μM, read-out: IC50, Rb:Raf-1 binding.

Each structure is given as a SMILES string. Like-named read-outs stand apart in the source and are kept apart here.

T1 sequence (P04049 1-149 limits assumed): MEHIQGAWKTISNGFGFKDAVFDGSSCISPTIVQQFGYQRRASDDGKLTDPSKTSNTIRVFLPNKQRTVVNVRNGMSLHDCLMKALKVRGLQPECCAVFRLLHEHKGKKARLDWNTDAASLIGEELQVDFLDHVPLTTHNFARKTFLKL
T1 sequence (P06400 whole entry): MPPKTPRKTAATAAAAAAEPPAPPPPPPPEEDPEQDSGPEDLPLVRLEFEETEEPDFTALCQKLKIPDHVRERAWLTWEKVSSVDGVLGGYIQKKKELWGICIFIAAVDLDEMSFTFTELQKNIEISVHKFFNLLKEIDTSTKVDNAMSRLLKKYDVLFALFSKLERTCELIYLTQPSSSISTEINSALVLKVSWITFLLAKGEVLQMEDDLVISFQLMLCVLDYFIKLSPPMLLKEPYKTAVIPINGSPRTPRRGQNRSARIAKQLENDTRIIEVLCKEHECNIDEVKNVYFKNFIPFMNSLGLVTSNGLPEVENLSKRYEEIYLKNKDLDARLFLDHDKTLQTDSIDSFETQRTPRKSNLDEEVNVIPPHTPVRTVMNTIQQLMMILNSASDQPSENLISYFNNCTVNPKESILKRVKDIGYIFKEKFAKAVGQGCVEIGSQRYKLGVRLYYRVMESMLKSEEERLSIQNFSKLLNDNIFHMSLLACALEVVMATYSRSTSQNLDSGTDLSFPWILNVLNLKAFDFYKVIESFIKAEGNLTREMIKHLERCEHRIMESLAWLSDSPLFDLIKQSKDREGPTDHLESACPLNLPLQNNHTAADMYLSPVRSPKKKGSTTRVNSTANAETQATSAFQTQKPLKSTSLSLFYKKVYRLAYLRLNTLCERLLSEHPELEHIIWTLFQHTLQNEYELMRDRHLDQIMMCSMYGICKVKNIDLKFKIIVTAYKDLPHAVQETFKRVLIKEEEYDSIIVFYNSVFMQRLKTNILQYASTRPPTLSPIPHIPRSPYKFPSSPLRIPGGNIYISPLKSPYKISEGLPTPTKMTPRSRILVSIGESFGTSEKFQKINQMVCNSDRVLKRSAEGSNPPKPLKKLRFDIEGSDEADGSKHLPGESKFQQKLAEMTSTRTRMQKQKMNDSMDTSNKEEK

With `Nc1nc(-c2ccc(F)cc2)cs1` [Compound 7h], the inhibition at 20 µM on Rb:Raf-1 binding is 32%.
On the same count and under the same terms, the same measure for `CNc1nc(-c2ccc(F)cc2)cs1` [Compound 7c]: 43%.
The same measure, in the same setting: the same measure for `Clc1ccc(CSc2ncc[nH]2)c(Cl)c1` [Compound 9e]: 68%.
As to `Clc1ccc(CSC2=NCCN2)cc1` [Compound 9g], the inhibition at 20 µM on Rb:Raf-1 binding is 47%.
The same measure, in the same setting: the same measure for `Clc1ccc(CSc2nc3ccccc3[nH]2)c(Cl)c1` [Compound 9j]: 40%.
Take `N=C(N)SCc1ccc2ccccc2c1Br` [Compound 5a]: the IC50 on Rb:Raf-1 binding (setting [2]) amounted to 80 nM. Besides, on Rb:Raf-1 binding, the inhibition at 20 µM was 100%.
On to `N=C(N)SC(c1ccccc1)c1ccccc1` [Compound 4d], for which the inhibition at 20 µM at Rb:Raf-1 binding was found to be 21%.
With `CNc1nc(-c2ccc(Cl)cc2Cl)cs1` [Compound 7g], the inhibition at 20 µM on Rb:Raf-1 binding is 33%.
Still for that read-out and setting: the same measure for `Cc1ccc(CSC(=N)N)cc1` [Compound 3p]: 44%; for `Nc1nc(-c2ccc(F)cc2F)cs1` [Compound 7e]: 39%.
On to `CC(SC(=N)N)c1ccc(Cl)cc1Cl` (centres unmarked) [Compound 4a], for which the IC50 at Rb:Raf-1 binding (setting [2]) came out at 322 nM. For the same compound, on Rb:Raf-1 binding, the inhibition at 20 µM amounted to 100%.
On to `Cl.N=C(N)SCc1ccccc1` [Compound 3r], for which, on Rb:Raf-1 binding, the “Rb:Raf-1 binding inhibitory activity in words” value is “inactive” and the inhibition at 20 µM was found to be 0%.
Take `N=C(N)NCc1ccc(Cl)cc1` [Compound 6f]: the “% Inhibition at 20 μM” value on Rb:Raf-1 binding (20 µM) is recorded as 16%.
On to `Clc1ccc(CSc2nnc[nH]2)c(Cl)c1` [Compound 9a], for which, on Rb:Raf-1 binding (setting [2]), the IC50 came to 97 nM. The inhibition at 20 µM at Rb:Raf-1 binding came to 92%.
Turning to `CNc1scc(-c2ccc(F)cc2F)[n+]1C` [Compound 8d], at Rb:Raf-1 binding, the inhibition at 20 µM came to 5%.
With `N=C(N)SCc1ccccc1Cl` [Compound 3b, 2-chlorobenzylisothiourea], on Rb:Raf-1 binding, the inhibition at 20 µM worked out at 100%. For the same compound, the IC50 at Rb:Raf-1 binding (setting [3]) worked out at 575 nM.
With `Nc1nc(-c2ccccc2)cs1` [Compound 7j], at Rb:Raf-1 binding, the inhibition at 20 µM was 22%.
As for `Clc1ccc(CSC2=NCCN2)c(Cl)c1` [Compound 9i], the inhibition at 20 µM at Rb:Raf-1 binding came out at 45%.
Take `N=C(N)NCc1ccc(Cl)cc1` [Compound 6a]: the half-maximal inhibitory concentration (IC50) on Rb:Raf-1 binding (setting [2]) amounted to 539 nM. Besides, on Rb:Raf-1 binding (20 µM), the “% Inhibition at 20 μM” value is on record as 100%.
Regarding `Cl.N=C(N)SCc1ccc(Cl)c(Cl)c1` [Compound 3h], on Rb:Raf-1 binding, the “fold less active compared to 3a” value stood at 50 fold and the inhibition at 20 µM was 81%. The 50% inhibitory concentration (IC50) at Rb:Raf-1 binding (setting [2]) came out at 3900 nM.
Turning to `COc1ccc(CSC(=N)N)cc1` [Compound 3o], the inhibition at 20 µM at Rb:Raf-1 binding amounted to 45%.
In the case of `Cl.N=C(N)SCc1c(Cl)cc(Cl)cc1Cl` [Compound 3t], at Rb:Raf-1 binding, the “Rb:Raf-1 binding inhibitory activity in words” value is “inactive” and the inhibition at 20 µM was 0%.
As to `Clc1ccc(CSc2ncc[nH]2)cc1` [Compound 9f], the inhibition at 20 µM at Rb:Raf-1 binding stood at 67%.
On to `N=C(N)SCc1ccc2c(c1)OCO2` [Compound 3l], for which the inhibition at 20 µM at Rb:Raf-1 binding was found to be 49%.
Still for that read-out and setting: the same measure for `N=C(N)SCc1ccc2ccccc2n1` [Compound 5d]: 76%; for `CNc1nc(-c2ccccc2)cs1` [Compound 7d]: 39%.
Consider `N=C(N)SCc1ccc(Cl)c(F)c1` [Compound 3c], for which, at Rb:Raf-1 binding, the inhibition at 20 µM was found to be 100%. On Rb:Raf-1 binding (setting [3]), the IC50 stood at 81 nM.
In the case of `N=C(N)SCc1ccc(Cl)cc1` [Compound 3g, 4-chlorobenzylisothiourea], on Rb:Raf-1 binding (setting [2]), the IC50 worked out at 274 nM. The inhibition at 20 µM on Rb:Raf-1 binding came out at 88%.
Taken in the same sequence, the figures for `CC(SC(=N)N)c1ccc(Cl)c(Cl)c1` (centres unmarked) [Compound 4b] were 510 ± 116 nM and 99%.
With `Nc1nnc(SCc2ccc(Cl)cc2)[nH]1` [Compound 9d], on Rb:Raf-1 binding, the inhibition at 20 µM came to 76%.
Turning to `N=C(N)SCc1ccc([N+](=O)[O-])cc1` [Compound 3m], on Rb:Raf-1 binding, the inhibition at 20 µM was 46%.
Turning to `Nc1nnc(SCc2ccc(Cl)cc2Cl)[nH]1` [Compound 9b], the IC50 on Rb:Raf-1 binding (setting [2]) was 131 nM. For the same compound, the inhibition at 20 µM at Rb:Raf-1 binding was determined as 91%.
For `CNc1scc(-c2ccc(F)cc2)[n+]1C` [Compound 8c], on Rb:Raf-1 binding, the inhibition at 20 µM was found to be 19%.
The same measure, in the same setting: the same measure for `Clc1ccc(CSc2nnc[nH]2)cc1` [Compound 9c]: 81%.
In the case of `N=C(N)NCc1ccccc1Cl` [Compound 6e], the “% Inhibition at 20 μM” value at Rb:Raf-1 binding was 25%.
With `N=C(N)SCc1ccc(C(F)(F)F)cc1C(F)(F)F` [Compound 3j], at Rb:Raf-1 binding, the inhibition at 20 µM came out at 53%.
Turning to `N=C(N)SCc1ccc(C(F)(F)F)cc1` [Compound 3n], the inhibition at 20 µM on Rb:Raf-1 binding was 46%.
As for `Cl.N=C(N)NCc1ccc(Cl)cc1` [Compound 6b], the “% Inhibition at 20 μM” value on Rb:Raf-1 binding was 61%.
Consider `CNc1nc(-c2ccc(Cl)cc2)cs1` [Compound 7f], for which the inhibition at 20 µM at Rb:Raf-1 binding turned out to be 34%.
On to `Cl.N=C(N)SCc1cccc(Cl)c1Cl` [Compound 3d], for which, at Rb:Raf-1 binding, the “fold less active compared to 3a” value is on record as “more than 2 fold” and the inhibition at 20 µM is 100%. Further, on Rb:Raf-1 binding (setting [2]), the half-maximal inhibitory concentration (IC50) stood at 164 nM.
With `CNc1scc(-c2ccccc2)[n+]1C` [Compound 8b], on Rb:Raf-1 binding, the inhibition at 20 µM turned out to be 22%.
For `N=C(N)NCc1ccc(Cl)cc1Cl` [Compound 6c], the inhibition at 20 µM at Rb:Raf-1 binding is 61%.
For the compound `COc1cc(CSC(=N)N)cc(OC)c1OC` [Compound 3q], at Rb:Raf-1 binding, the inhibition at 20 µM stood at 20%.
On to `N=C(N)SCc1ccc(Cl)c(C(F)(F)F)c1` [Compound 3f], for which the inhibition at 20 µM on Rb:Raf-1 binding was 94%. Also, the IC50 on Rb:Raf-1 binding (setting [3]) was determined as 312 nM.
In the case of `CNc1scc(-c2ccc(Cl)cc2)[n+]1C` [Compound 8a], the inhibition at 20 µM on Rb:Raf-1 binding came out at 37%.
As to `N=C(N)SC(Cc1ccccc1)c1ccc(Cl)cc1Cl` (centres unmarked) [Compound 4e], the inhibition at 20 µM at Rb:Raf-1 binding came to 32%.
Regarding `N=C(N)SCc1cccc(Cl)c1` [Compound 3e, 3-chlorobenzylisothiourea], the inhibition at 20 µM on Rb:Raf-1 binding amounted to 100%. At Rb:Raf-1 binding (setting [3]), the IC50 came out at 230 nM.
As for `CCC(SC(=N)N)c1ccc(Cl)cc1Cl` (centres unmarked) [Compound 4c], the IC50 at Rb:Raf-1 binding (setting [2]) worked out at 567 nM. Also, the inhibition at 20 µM on Rb:Raf-1 binding is 100%.
For the compound `Cl.N=C(N)SCc1c(Cl)cccc1Cl` [Compound 3s], on Rb:Raf-1 binding, the “Rb:Raf-1 binding inhibitory activity in words” value is “inactive” and the inhibition at 20 µM turned out to be 0%.
As to `N=C(N)SCc1cc(Cl)ccc1Cl` [Compound 3i], the IC50 at Rb:Raf-1 binding (setting [2]) amounted to 2110 ± 180 nM. On Rb:Raf-1 binding, the inhibition at 20 µM was found to be 79%.
Turning to `N=C(N)SCc1ccc2c(c1)C(=O)c1ccccc1C2=O` [Compound 5e], the inhibition at 20 µM at Rb:Raf-1 binding came to 56%.
For `CNC(=O)c1cc(Oc2ccc(NC(=O)Nc3ccc(Cl)c(C(F)(F)F)c3)cc2)ccn1` [BAY43-9006, sorafenib, reference compound], in assay [1], the Rb phosphorylation result was “did not seem to have any effect on Rb phosphorylation”.
Regarding `Nc1nc(-c2ccc(Cl)cc2Cl)cs1` [Compound 7b], the inhibition at 20 µM at Rb:Raf-1 binding was found to be 45%.
On the same count and under the same terms, the same measure for `Nc1nc(-c2ccc(Cl)cc2)cs1` [Compound 7i]: 29%.
On to `N=C(N)SCc1ccncc1` [Compound 5b], for which the IC50 on Rb:Raf-1 binding (setting [2]) is 2630 ± 330 nM. In addition, the inhibition at 20 µM on Rb:Raf-1 binding was 94%.
Take `N=C(N)SCc1c2ccccc2cc2ccccc12` [Compound 5f]: at Rb:Raf-1 binding, the inhibition at 20 µM was 22%.
On to `Cl.N=C(N)NCc1ccccc1Cl` [Compound 6d], for which, at Rb:Raf-1 binding, the “% Inhibition at 20 μM” value is given as 59%.
Turning to `Cl.N=C(N)SCc1ccc(Cl)c2ccccc12` [Compound 5c], the IC50 at Rb:Raf-1 binding (IC50 (nM), inhibition of the Rb:Raf-1 binding, concentration that inhibits the Rb:Raf-1 binding by 50%, triplicate) was 1900 nM. Besides, at Rb:Raf-1 binding (IC50 ratio to 5a), the “fold reduction of activity relative to 5a” value is reported as 24 fold. In addition, the “% Inhibition at 20 μM” value on Rb:Raf-1 binding came out at 93%.
For `CNc1nc(-c2ccc(F)cc2F)cs1` [Compound 7a], the inhibition at 20 µM on Rb:Raf-1 binding was determined as 53%.
On the same count and under the same terms, the same measure for `CC(C)(C)c1ccc(CSC(=N)N)cc1` [Compound 3k]: 52%.
